Several values for one entry are separate records, joined by “and”; a condition that tells them apart may be missing. Equal values may be shown once. Read-outs that look alike come from different tables or passages of the source.
How the values were obtained:
SmChiB-E144Q = test: Literature Kd values from isothermal titration calorimetry, quoted for comparison; conditions not given in this article.; format: binding; details: read-out: Kd values in μM (SmChiB-E144Q, OfChtI-E148Q, BcChiA-E61A); cited from earlier work
Text: (§1) So far three chitinases, two belonging to family GH18 (ChiB from S. marcescens−SmChiB and a chitinase from the insect Ostrinia furnacalis−OfChtI) and one belonging to family GH19 (ChiA from moss species, Bryum coronatum−BcChiA) were studied in great detail for their binding properties using ITC[27][28][29]. […] The high binding affinities of the mutant E153A even for the lower chain CHOS like DP2 and DP3, indicates the probability of these CHOS getting transglycosylated at the substrate-binding cleft. […] Therefore, the exceptionally high binding affinities of the mutant E153A for CHOS with DP2−6 compared to any other GH18 or GH19 chitinases[27][28][29] (Table 3) might be crucial to facilitate the unprecedented hyper-TG activity by SpChiD.

BcChiA-E61A = test: as above; format: binding; details: read-out: Kd values in μM (SmChiB-E144Q, OfChtI-E148Q, BcChiA-E61A); cited from earlier work
Text: as §1

SpChiD-E153A [1] = test: ITC binding of CHOS to E153A; design: species or system Serratia proteamaculans; details: for binding affinity to E153A relative to the same ligand on SmChiB: times higher than SmChiB
Experimental: (§2) Calorimetric titrations were carried out at 13 °C with DP2–4 CHOS, and at 25 °C with DP5 and DP6 CHOS, using a MicroCal ITC200 System (Microcal, Northampton, MA, USA). Mutant E153A was extensively dialyzed against 20 mM potassium phosphate (pH 8.0) and the dialysate was used to make CHOS solutions to minimize the heat of dilution during titration. Protein solutions were passed through 0.2-μm filters and thoroughly degassed prior to use. […] Successive injections at 225-s intervals ensured that equilibrium was achieved before adding the next aliquot. The sample in the calorimeter cell was stirred at 260 rpm during titration. Blank titrations were also performed by injecting ligand alone into the buffer solution, which yielded insignificant heat of dilution values. The binding isotherms were analyzed using MicroCal Origin v7.0. Thermodynamic parameters such as binding stoichiometry (n), change in enthalpy (ΔH) and association constant (Ka) were obtained by nonlinear least-squares fitting of experimental data using the one-set-of-sites binding model. Free energy of binding (ΔG) and change in entropy (ΔS) were deduced from the Ka and ΔH values using the standard thermodynamic equation

SpChiD-E153A [2] = biological target: SpChiD-E153A (Serratia proteamaculans, UniProt A8GFD6, E159A); test: ITC binding of CHOS to E153A; details: ITC
Sequence of SpChiD-E153A (Serratia proteamaculans, UniProt A8GFD6, E159A) (A8GFD6 entry or part of it E159A): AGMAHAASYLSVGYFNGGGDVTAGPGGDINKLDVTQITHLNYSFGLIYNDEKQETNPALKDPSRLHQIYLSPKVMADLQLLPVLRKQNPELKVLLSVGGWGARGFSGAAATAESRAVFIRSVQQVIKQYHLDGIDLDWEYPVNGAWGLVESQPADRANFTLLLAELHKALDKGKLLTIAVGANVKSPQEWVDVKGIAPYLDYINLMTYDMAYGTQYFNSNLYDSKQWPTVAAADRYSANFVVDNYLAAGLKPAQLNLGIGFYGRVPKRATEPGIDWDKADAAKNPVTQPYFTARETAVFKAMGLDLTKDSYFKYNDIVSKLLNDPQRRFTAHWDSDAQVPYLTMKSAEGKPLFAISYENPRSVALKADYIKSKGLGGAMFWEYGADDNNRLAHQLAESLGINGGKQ
Experimental: as §2

SpChiD mutant E153A = test: DSC ligand-induced thermal stability of E153A with CHOS DP2–6; format: binding, Serratia proteamaculans; details: for Tm Transition-I / Tm Transition-II: DSC, pH 8.0; for Tm Transition-I: E153A 0.5 mg/mL alone or pre-incubated 1 h with 1 mM ligand; for Tm Transition-II: E153A alone or pre-incubated 1 h with 1 mM ligand; for increment of Tm1 over E153A alone / increment of Tm2 over E153A alone: [Tm of E153A + (DP)n] − Tm of E153A alone; for increment of Tm1 over E153A alone: first transition; for increment of Tm2 over E153A alone: second transition
Experimental: DSC measurements were carried out on a MicroCal VP-DSC (MicroCal LLC, Northampton, MA, USA). SpChiD and mutant E153A were dialyzed against 20 mM potassium phosphate buffer, pH 8.0. The dialysate was used as the reference. Protein samples (0.5 mg/mL) were heated from 10–70 °C at a scan rate of 30°/h to assess the effect of ligand binding on thermal unfolding. Mutant E153A was pre-incubated for 1 h with 1 mM of each ligand (DP2–6) before scanning. Sample and reference solutions were degassed prior to scanning to eliminate bubbling effects. Baseline reproducibility was verified by multiple scans, and the reversibility of protein unfolding was monitored by scanning the sample twice. Buffer scans were subtracted from thermograms obtained in the presence or absence of CHOS before further analysis. Absolute and excess heat capacities were analyzed using a non-two-state fit of the thermogram in Origin v7.0.

OfChtI-E148Q = details: catalytically-inactive mutant, cited from earlier work

SMILES | Kd (SmChiB-E144Q) [µM] | Kd (BcChiA-E61A) [µM] | n (binding stoichiometry) (SpChiD-E153A [2]; 13 °C) | ΔH° (SpChiD-E153A [2]; 13 °C) [kcal/mol] | ΔS° (SpChiD-E153A [2]; 13 °C) [cal.mol^−1.deg^−1] | −TΔS (SpChiD-E153A [2]; 13 °C) [kcal/mol] | −ΔG° (SpChiD-E153A [2]; 13 °C) [kcal/mol] | Tm Transition-I (SpChiD mutant E153A) [°C] | Tm Transition-II (SpChiD mutant E153A) [°C] | binding affinity to E153A relative to the same ligand on SmChiB (SpChiD-E153A [1]) | Kd (OfChtI-E148Q; read-out: Kd to OfChtI-E148Q) [nM] | other results
CC(=O)N[C@H]1[C@H](O[C@H]2[C@H](O)[C@@H](NC(C)=O)[C@H](O[C@H]3[C@H](O)[C@@H](NC(C)=O)C(O)O[C@@H]3CO)O[C@@H]2CO)O[C@H](CO)[C@@H](O[C@@H]2O[C@H](CO)[C@@H](O[C@@H]3O[C@H](CO)[C@@H](O[C@@H]4O[C@H](CO)[C@@H](O)[C@H](O)[C@H]4NC(C)=O)[C@H](O)[C@H]3NC(C)=O)[C@H](O)[C@H]2NC(C)=O)[C@@H]1O (some centres unmarked) [DP6, (GlcNAc)6, hexa-N-acetylchitohexaose (chitohexaose)] | 0.13 ± 0.09 | 0.77 ± 0.06 | – | – | – | – | – | – | – | – | – | –
CC(=O)N[C@H]1[C@H](O[C@H]2[C@H](O)[C@@H](NC(C)=O)C(O)O[C@@H]2CO)O[C@H](CO)[C@@H](O[C@@H]2O[C@H](CO)[C@@H](O[C@@H]3O[C@H](CO)[C@@H](O)[C@H](O)[C@H]3NC(C)=O)[C@H](O)[C@H]2NC(C)=O)[C@@H]1O (some centres unmarked) [DP4, (GlcNAc)4, tetra-N-acetylchitotetraose] | 2.7 ± 0.19 | 16 ± 1 | – | – | – | – | – | – | – | – | – | –
CC(=O)N[C@H]1[C@H](O[C@H]2[C@H](O)[C@@H](NC(C)=O)[C@H](O[C@H]3[C@H](O)[C@@H](NC(C)=O)C(O)O[C@@H]3CO)O[C@@H]2CO)O[C@H](CO)[C@@H](O[C@@H]2O[C@H](CO)[C@@H](O[C@@H]3O[C@H](CO)[C@@H](O)[C@H](O)[C@H]3NC(C)=O)[C@H](O)[C@H]2NC(C)=O)[C@@H]1O (some centres unmarked) [DP5, (GlcNAc)5, penta-N-acetylchitopentaose] | 0.67 ± 0.2 | 1.8 ± 0.3 | – | – | – | – | – | – | – | – | – | –
CC(=O)N[C@H]1[C@H](O[C@H]2[C@H](O)[C@@H](NC(C)=O)C(O)O[C@@H]2CO)O[C@H](CO)[C@@H](O)[C@@H]1O (some centres unmarked) [DP2] | – | – | 3.04 and 3.04 ± 0.307 | -0.1506 ± 0.0261 | 20.6 | 5.89 | 6.04 | 48.78 ± 0.03 | 53.16 ± 0.096 | – | – | binding affinity of DP2 to SpChiD relative to DP5 binding to SmChiB (SpChiD-E153A [1]; compared with DP5 on SmChiB (Kd = 0.67 μM)): ~3 times
CC(=O)N[C@H]1[C@H](O[C@H]2[C@H](O)[C@@H](NC(C)=O)[C@H](O[C@H]3[C@H](O)[C@@H](NC(C)=O)C(O)O[C@@H]3CO)O[C@@H]2CO)O[C@H](CO)[C@@H](O[C@@H]2O[C@H](CO)[C@@H](O[C@@H]3O[C@H](CO)[C@@H](O[C@@H]4O[C@H](CO)[C@@H](O)[C@H](O)[C@H]4NC(C)=O)[C@H](O)[C@H]3NC(C)=O)[C@H](O)[C@H]2NC(C)=O)[C@@H]1O (some centres unmarked) [DP6, chitohexaose] | – | – | – | – | – | – | – | 58.15 ± 0.19 | 60.49 ± 0.055 | 26 fold | 480 ± 90 | n (binding stoichiometry) (SpChiD-E153A [2]; 25 °C): 1.58 and 1.58 ± 0.00962; ΔH° (SpChiD-E153A [2]; 25 °C): 2.281 ± 0.0249 kcal/mol; ΔS° (SpChiD-E153A [2]; 25 °C): 36.3 cal.mol^−1.deg^−1; −TΔS (SpChiD-E153A [2]; 25 °C): 10.81 kcal/mol; −ΔG° (SpChiD-E153A [2]; 25 °C): 8.53 kcal/mol; increment of Tm1 over E153A alone (SpChiD mutant E153A): 12.8 °C; increment of Tm2 over E153A alone (SpChiD mutant E153A): 12.4 °C
CC(=O)N[C@H]1[C@H](O[C@H]2[C@H](O)[C@@H](NC(C)=O)C(O)O[C@@H]2CO)O[C@H](CO)[C@@H](O[C@@H]2O[C@H](CO)[C@@H](O[C@@H]3O[C@H](CO)[C@@H](O)[C@H](O)[C@H]3NC(C)=O)[C@H](O)[C@H]2NC(C)=O)[C@@H]1O (some centres unmarked) [DP4] | – | – | 1.69 and 1.69 ± 0.071 | 1.148 ± 0.0675 | 27 | 7.72 | 6.6 | 48.88 ± 0.52 | 54.10 ± 0.032 | – | 11300 ± 1500 | –
CC(=O)N[C@H]1[C@H](O[C@H]2[C@H](O)[C@@H](NC(C)=O)[C@H](O[C@H]3[C@H](O)[C@@H](NC(C)=O)C(O)O[C@@H]3CO)O[C@@H]2CO)O[C@H](CO)[C@@H](O[C@@H]2O[C@H](CO)[C@@H](O[C@@H]3O[C@H](CO)[C@@H](O)[C@H](O)[C@H]3NC(C)=O)[C@H](O)[C@H]2NC(C)=O)[C@@H]1O (some centres unmarked) [DP5] | – | – | – | – | – | – | – | 56.09 ± 0.30 | 59.30 ± 0.063 | 52 fold | 2000 ± 200 | n (binding stoichiometry) (SpChiD-E153A [2]; 25 °C): 1.09 and 1.09 ± 0.00966; ΔH° (SpChiD-E153A [2]; 25 °C): 3.530 ± 0.0468 kcal/mol; ΔS° (SpChiD-E153A [2]; 25 °C): 38.7 cal.mol^−1.deg^−1; −TΔS (SpChiD-E153A [2]; 25 °C): 11.53 kcal/mol; −ΔG° (SpChiD-E153A [2]; 25 °C): 8 kcal/mol; increment of Tm1 over E153A alone (SpChiD mutant E153A): 10.7 °C; increment of Tm2 over E153A alone (SpChiD mutant E153A): 11.2 °C
CC(=O)N[C@H]1[C@H](O[C@H]2[C@H](O)[C@@H](NC(C)=O)C(O)O[C@@H]2CO)O[C@H](CO)[C@@H](O[C@@H]2O[C@H](CO)[C@@H](O)[C@H](O)[C@H]2NC(C)=O)[C@@H]1O (some centres unmarked) [DP3, (GlcNAc)3, N,N',N''-triacetylchitotriose] | 327 ± 22 | 230 ± 20 | – | – | – | – | – | – | – | – | – | –
CC(=O)N[C@H]1[C@H](O[C@H]2[C@H](O)[C@@H](NC(C)=O)C(O)O[C@@H]2CO)O[C@H](CO)[C@@H](O[C@@H]2O[C@H](CO)[C@@H](O)[C@H](O)[C@H]2NC(C)=O)[C@@H]1O (some centres unmarked) [DP3] | – | – | 0.84 and 0.839 ± 0.0641 | -1.837 ± 0.186 | 14.9 | 4.26 | 6.1 | 50.20 ± 0.47 | 54.30 ± 0.043 | 1,515 fold | – | Kd (OfChtI-E148Q; read-out: Kd1 to OfChtI-E148Q): 76900 nM; Kd (OfChtI-E148Q; read-out: Kd2 to OfChtI-E148Q): 284000 nM

From article PMC4616163, “Inverse relationship between chitobiase and transglycosylation activities of chitinase-D from Serratia proteamaculans revealed by mutational and biophysical analyses” (Scientific Reports, 2015)
